We go through two substances from patent US20250009901A1, “COMPOSITION COMPRISING A COMBINATION OF IMMUNE CHECKPOINT INHIBITOR AND ANTIBODY-AMATOXIN CONJUGATE FOR USE IN CANCER THERAPY” (Heidelberg Pharma Research GmbH, priority 2020, published 2025).

In general, Kd refers to a measure of binding affinity in units of concentration.

For assay [1], the system named is Her2-positive cell line BT474. As to the kind of experiment: Calreticulin measurement (ICD marker), flow cytometry. The settings on record: Amanitin 100 nM, conjugates 50 nM antibody, 24, 48, 72 h post-treatment, vs media only. It counts as cell-based, human. How it is done:
(§1) The Her2-positive cell line BT474 is a human breast cancer cell line. The CD79b-positive cell line BJAB is a human Burkitt lymphoma-derived B cell line.
(§2) Cells of the Her2-positive cell line BT474 and of the CD79b-positive cell line BJAB, respectively, were plated at 8×10^4 cells per well in 100 μL of media. Flat bottom or U-bottom plates were used for BT474 or BJAB cells, respectively. The following day, media was changed. […] Then, cells were treated with media alone, Maytansine (100 nM), Amanitin (100 nM), Anti-HER2-Amanitin conjugate (50 nM antibody), or Anti-CD79b-Amanitin conjugate (50 nM antibody) for 16-72 h.
(§3) Cells were assayed at 24, 48, and 72 h post-treatment. The adherent BT474 cells were lifted with a solution of highly purified, recombinant cell-dissociation enzymes (TrypLE, Thermo-Fisher) for 2 min. at 37° C. Both BT474 and BJAB cells were washed with PBS/2% FBS and then fixed in 0.5% paraformaldehyde for 5 min. After washing twice with cold PBS/2% FBS, cells were incubated for 5 min. with an Fc receptor binding inhibitor (FC block, eBioscience), blocking Fc receptor-mediated non-specific binding, followed by 30-min. incubation with Anti-Calreticulin-FITC (Abcam) or isotype control-FITC (Abcam). […] Propidium iodide (PI) was added, and samples were analyzed by flow cytometry on a FACSCanto instrument (Becton-Dickinson) using FACS Diva software.
For orientation: In flow cytometry, cells or beads pass a laser one at a time.

Assay [2] has as its system CD79b-positive cell line BJAB. The assay is described as above. It counts as cell-based, human. The settings on record: Amanitin 100 nM, conjugates 50 nM antibody, 24, 48, 72 h post-treatment, vs media only. How it is done:
as §1, §2, §3

Assay [3] relates to Her2-positive cell line BT474. As to the kind of experiment: Extracellular HMGB1 measurement (ICD marker), ELISA. The format is cell-based, human. The settings on record: Amanitin 100 nM, conjugates 50 nM antibody, 24, 48, 72 h post-treatment, vs media only. How it is done: as §1, §2
(§4) Culture media was collected at 24, 48, and 72 h post-treatment. Analytes were captured on a Nunc Maxisorp 96-well plate coated at pH 9 with 1 μg/mL Anti-HMGB1 antibody (clone 1D5, Sigma), and plates were blocked with casein buffer (ThermoFisher). A standard curve was generated using recombinant human HMGB1 protein (R&D Systems) added to culture media that had been incubated at 37° C./5% CO2 for the same number of days as the experimental samples. This step had the effect of normalizing background signals observed in fresh culture media. […] After 30 min, the plate was washed with PBS/0.1% Tween-20, and bound secondary antibody was detected using Ultra TMB (Thermo Fisher); signals were read on a Molecular Devices Spectra Max M5 plate reader. […]

The test system of assay [4] is CD79b-positive cell line BJAB. The description is as above. As to conditions: Amanitin 100 nM, conjugates 50 nM antibody, 24, 48, 72 h post-treatment, vs media only. The format is cell-based, human. How it is done:
as §1, §2, §4

In assay [5] the test system is Her2-positive cell line BT474. The assay can be described thus: Extracellular ATP measurement (ICD marker). The settings on record: Amanitin 100 nM, conjugates 50 nM antibody, 16, 40, 64 h post-treatment, vs media only. It counts as cell-based, human. How it is done:
as §1, §2
(§5) At 16, 40, and 64 h post-treatment, culture media was transferred to reaction tubes (Eppendorf) and centrifuged gently. Extracellular ATP concentrations were determined by use of the ENLITEN ATP Assay (Promega). Chemiluminescence was measured on a SpectraMax ME chemiluminescence reader (Molecular Devices).

In assay [6] the test system is CD79b-positive cell line BJAB. As to the kind of experiment: Extracellular ATP measurement (ICD marker). The settings on record: Amanitin 100 nM, conjugates 50 nM antibody, 16, 40, 64 h post-treatment, vs media only. It counts as cell-based, human. How it is done: as §1, §2, §5
A further assay concerns the target RNA-polymerase II (Homo sapiens, UniProt P24928). As to conditions: read-out: KD of the complex between amanitin and RNA-polymerase II; cited from earlier work.
The subject of assay [7] is CD19-positive Raji cells (human Burkitt lymphoma). As to the kind of experiment: Raji xenograft mouse model with human PBMCs, ATAC and Avelumab (first Example 4, FIG. 5). The format is in vivo, mice. How it is done: FIG. 5. Synergistic action of Avelumab and Anti-CD19-Amatoxin conjugate in the presence of peripheral blood mononuclear cells (PBMCs). Results of anti-tumoral studies using anti-PD-L1 antibody Avelumab (20 mg/kg, i.v., days 0, 3, 6, 8, 10, 13), or anti-CD19-amatoxin conjugate (ATAC, 0.1 and 0.3 mg/kg, respectively; single dose i.v. day 0), or a combination of Avelumab (20 mg/kg) and ATAC (0.1 and 0.3 mg/kg, respectively), in vivo in a Raji xenograft mice model system. Tumor volume was assessed at various time points after tumor cell inoculation.
The cytotoxic activity of the combination comprising an ICI and an ATAC has been assessed by use of a tumor mouse model in vivo. The study consisted of 6 experimental groups with 12 animals each. CD19-positive Raji cells (human Burkitt lymphoma, DSMZ) were premixed with human peripheral blood mononuclear cells (PBMCs, German Red Cross) and inoculated subcutaneously on study day 0. […] Tumor volumes were measured twice per week by calliper measurements and body weights were determined in parallel. […]
(Xenograft models place foreign cells or tissue in a host animal.)

On to Amanitin, for which the “cell surface exposure of calreticulin (CRT)” value in assay [1] and in assay [2] was “did not induce” in each case. The HMGB1 release result in assay [3] and in assay [4] was “did not induce” each time. For the same substance, the ATP secretion result in assay [5] and in assay [6] was “did not induce” each time. Besides, on RNA-polymerase II, the Kd was 3 nM.
With Avelumab: PD-L1-specific antibody, the “Reduction of the tumor volumes as compared to the control group (PBS), single agents compared with each other” value in assay [7] (Avelumab 20 mg/kg alone, ATAC 0.1 mg/kg alone) was “comparable”. In addition, the “Mean TV (tumor volume)” value in assay [7] (day 31 post tumor cell inoculation, Avelumab 20 mg/kg i.v. days 0, 3, 6, 8, 10, 13) is given as 353.1 mm^3.
